Bounds are passed on as bounds.

Experimental findings from patent publication US10155751B2, “Pyrazolyl-substituted heteroaryls and their use as medicaments” (Boehringer Ingelheim International GmbH, priority 2015, dated 2018) are described below.

One experiment relates to SYK dependent basophil degranulation (CD63 surface expression on basophils in whole blood). The experiment is described as follows: CD63-assay (cellular assay for SYK-inhibition) in whole blood. In kind it is cell-based. The conditions noted are these: read-out: EC50 in CD63-assay. As to the method:
In this assay, IgE raised against dinitrophenol (DNP) is incubated in whole blood where it binds to the FcεR1 on basophils. […] CD63 normally resides on the intracellular granule membrane within basophils, which upon degranulation, is then expressed on the surface where it can be detected by flow cytometry. Surface expression of CD63 correlates extremely well with the release of histamine from basophils. The CD63 assay has previously been validated as a clinical target engagement biomarker in the Fostamatinib SYK program (Braselmann et al, J. Pharm. Exp. Therap. 319:998-1008, 2006). Heparinized whole blood is mixed gently (vortex mixer) and […] per test aliquoted into a 96 well plate. Anti-DNP (1 mg/ml) is diluted 1:100 with PBS/0.1% HSA to 10 μg/ml (final concentration: 1 μg/mL). Pre-dilute DNP/BSA (5 mg/ml) to a concentration of 60 ng/ml with washing solution. Compounds: […] Reagents are provided from the Basotest® kit. Incubate 10 μl of 10 μg/ml anti DNP and 10 μl of compound with 100 μl whole blood in a 37° C. pre-warmed water bath. After 30 minutes, 20 μl of STIMULATION BUFFER is added to the whole blood samples and vortexed gently. Incubate the samples for 10 min at 37° C. in a water bath. 100 μl of DNP/BSA is added per test to the whole blood. Add 100 μl of the WASHING SOLUTION to a further test tube as a negative control. Add 100 μl of DNP/BSA (final 30 ng/ml) in the compound tubes. All tubes are mixed once more. The samples are incubated for 20 min at 37° C. in a water bath. Stop degranulation by incubating the samples on ice for 5 min. Add 20 μl of STAINING REAGENT to each tube. Vortex and incubate the tubes for 20 min in an ice bath, covered to prevent exposure to light. The whole blood samples are lysed and fixed with 2 ml of pre-warmed (room temperature) 1×LYSING SOLUTION. Vortex and incubate for 10 min at room temperature. Spin down cells (5 min, 250×g, 4° C.). Discard the supernatant. Add 3 ml of WASHING SOLUTION to the tubes. Centrifuge the tubes (5 min, 250×g, 4° C.). Aspirate the supernatant. Add 200 μl WASHING SOLUTION to the cell pellet, vortex. Incubate the tubes in a covered ice bath until analysis. Cells are analysed by flow cytometry using the blue-green excitation light (488 nm argon-ion laser). Acquire data by using fluorescence triggering in the FL2 channel (PE) to gate on basophilic granulocytes expressing high amounts of IgE. This live gating reduces the amount of data and saves memory capacity. Acquire at least 500 basophils per sample. For data evaluation and calculation, the measurement of the negative control (unstimulated blood) was set as 100% control and the measurement of the positive control (DNP/anti-DNP stimulated blood) was set as 0% control. Based on these values the % value for the measurement of each substance concentration was calculated, a concentration-effect curve fitted and an EC50 value calculated using GraphPad Prism version 6.01 for Windows. The EC50 value was calculated using a nonlinear fitting (log(inhibitor) vs. response—variable slope). Normally, the % control values calculated are between 0% and 100% values but may also occur outside these limits in individual cases based on variability or compound characteristics.
Take `C[C@@H](Oc1nc(-c2cnn(C(C)(C)C)c2)cc2ncn(C)c12)[C@H]1CNC(=O)C1` [example 3A.02, on page 196 of WO15017610, reference compound]: the EC50 was < 150 nM.

Consider `C[C@@H](Oc1cc(-c2cnn(C(C)(C)C)c2)cc2ncn(C)c12)[C@H]1CNC(=O)C1` [example 3B.22 on page 219 of WO15017610, reference compound], for which the EC50 was < 150 nM.

Still in this experiment, the particulars now being: whole blood, DNP/anti-DNP stimulated basophils; read-out: CD63 assay EC50-value (chapter 5.2).
As for `C[C@@H](Oc1cc(-c2cnn(C3CCC3)c2)cc2nn(C)c(F)c12)[C@H]1CNC(=O)C1` [Example 1, (R)-4-{(R)-1-[6-(1-Cyclobutyl-1H-pyrazol-4-yl)-3-fluoro-2-methyl-2H-indazol-4-yloxy]-ethyl}-pyrrolidin-2-one], the EC50 amounted to 41 nM.

Take `CC(C)n1cc(-c2cc(O[C@H](C)[C@H]3CNC(=O)C3)c3c(F)n(C)nc3c2)cn1` [Example 2, (R)-4-{(R)-1-[3-Fluoro-6-(1-isopropyl-1H-pyrazol-4-yl)-2-methyl-2H-indazol-4-yloxy]-ethyl}-pyrrolidin-2-one]: the EC50 was found to be 45 nM.

On to `Cc1c2c(O[C@H](C)[C@H]3CNC(=O)O3)nc(-c3cnn(C(C)(C)C)c3)cc2nn1C` [Example 3, (R)-5-{(R)-1-[6-(1-tert-Butyl-1H-pyrazol-4-yl)-2,3-dimethyl-2H-pyrazolo[4,3-c]pyridin-4-yloxy]-ethyl}-oxazolidin-2-one], for which the concentration giving a half-maximal response (EC50) was found to be 51 nM.

With `Cc1c2c(O[C@H](C)[C@H]3CNC(=O)C3)nc(-c3c[nH]nc3C(C)(C)C)cc2nn1C` [Example 4, (R)-4-{(R)-1-[6-(3-tert-Butyl-1H-pyrazol-4-yl)-2,3-dimeth-yl-2H-pyrazolo[4,3-c]pyridin-4-yloxy]-ethyl}-pyrrolidin-2-one], the EC50 was determined as 64 nM.

Turning to `C[C@@H](Oc1cc(-c2cnn(C3CC3)c2)cc2nn(C)c(F)c12)[C@H]1CNC(=O)C1` [Example 5, (R)-4-{(R)-1-[6-(1-Cycloprop-yl-1H-pyrazol-4-yl)-3-fluoro-2-methyl-2H-indazol-4-yloxy]-ethyl}-pyrrolidin-2-one], the EC50 turned out to be 52 nM.

On to `C[C@@H](Oc1cc(-c2cnn(CC3CC3)c2)cc2nn(C)c(F)c12)[C@H]1CNC(=O)C1` [Example 6, (R)-4-{(R)-1-[6-(1-Cycloprop-ylmethyl-1H-pyrazol-4-yl)-3-fluoro-2-methyl-2H-indazol-4-yloxy]-ethyl}-pyrrolidin-2-one], for which the EC50 worked out at 42 nM.

On to `C[C@@H](Oc1cc(-c2cnn(C3CCC(F)(F)C3)c2)cc2nn(C)c(F)c12)[C@H]1CNC(=O)C1` (stereo partly shown) [Example 7], for which the EC50 was determined as 53 nM.

For `Cc1c2c(O[C@H](C)[C@H]3CNC(=O)C3)cc(-c3cnn(CC4CC4)c3)cc2nn1C` [Example 8, (R)-4-{(R)-1-[6-(1-Cyclopropylmethyl-1H-pyrazol-4-yl)-2,3-dimethyl-2H-indazol-4-yloxy]-ethyl}-pyrrolidin-2-one], the EC50 was found to be 47 nM.

In the case of `Cc1c2c(O[C@H](C)[C@H]3CNC(=O)C3)cc(-c3cnn([C@@H]4CCOC(C)(C)C4)c3)cc2nn1C` [Example 9, (R)-4-((R)-1-{6-[1-((R)-2,2-Dimethyl-tetrahydro-pyran-4-yl)-1H-pyrazol-4-yl]-2,3-dimethyl-2H-indazol-4-yloxy}-ethyl)-pyrrolidin-2-one], the EC50 stood at 52 nM.

Take `Cc1c2c(O[C@H](C)[C@H]3CNC(=O)C3)cc(-c3cnn([C@H]4CO[C@@H]5CCCO[C@@H]54)c3)cc2nn1C` [Example 10, 4-(1-{6-[(R)-(3S,3aR,7aR)-1-(Hexahydro-furo[3,2-b]pyran-3-yl)-1H-pyrazol-4-yl]-2,3-dimethyl-2H-indazol-4-yloxy}-ethyl)-pyrrolidin-2-one]: the EC50 is 65 nM.

Take `Cc1c2c(O[C@H](C)[C@H]3CNC(=O)C3)cc(-c3cnn(CCF)c3)cc2nn1C` [Example 11, (R)-4-((R)-1-{6-[1-(2-Fluoro-ethyl)-1H-pyrazol-4-yl]-2,3-dimethyl-2H-indazol-4-yloxy}-ethyl)-pyrrolidin-2-one]: the EC50 is 65 nM.

As for `C[C@@H](Oc1cc(-c2cnn(CCC(F)(F)F)c2)cc2nn(C)c(F)c12)[C@H]1CNC(=O)C1` [Example 12, (R)-4-((R)-1-{3-Fluoro-2-methyl-6-[1-(3,3,3-trifluoro-propyl)-1H-pyrazol-4-yl]-2H-indazol-4-yloxy}-ethyl)-pyrrolidin-2-one], the EC50 worked out at 67 nM.

As for `Cc1c2c(O[C@H](C)[C@H]3CNC(=O)C3)cc(-c3cnn(C(C)(C)C)c3)cc2nn1C` [Example 13, (R)-4-{(R)-1-[6-(1-tert-Butyl-1H-pyrazol-4-yl)-2,3-dimethyl-2H-indazol-4-yloxy]-ethyl}-pyrrolidin-2-one], the half-maximal effective concentration (EC50) was found to be 58 nM.

For the molecule `C[C@@H](Oc1cc(-c2cnn(C3CC(C)(C)OC3(C)C)c2)cc2nn(C)c(F)c12)[C@H]1CNC(=O)C1` (stereo partly drawn) [Example 14, (R)-4-((R)-1-{3-Fluoro-2-methyl-6-[1-(2,2,5,5-tetramethyl-tetrahydro-furan-3-yl)-1H-pyrazol-4-yl]-2H-indazol-4-yloxy}-ethyl)-pyrrolidin-2-one], the EC50 is 76 nM.

Consider `Cc1c2c(O[C@H](C)[C@H]3CNC(=O)C3)cc(-c3cnn(C4CC(C)(C)OC4(C)C)c3)cc2nn1C` (stereo partly drawn) [Example 16, (R)-4-((R)-1-{2,3-Dimethyl-6-[1-(2,2,5,5-tetramethyl-tetrahydro-furan-3-yl)-1H-pyrazol-4-yl]2H-indazol-4-yloxy}-ethyl)-pyrrolidin-2-one], for which the EC50 came to 82 nM.

`Cc1c2c(O[C@H](C)[C@H]3CNC(=O)C3)cc(-c3cnn(C(C)(C)C#N)c3)cc2nn1C` [Example 17, 2-(4-{2,3-Dimethyl-4-[(R)-1-((R)-5-oxo-pyrrolidin-3-yl)-ethoxy]-2H-indazol-6-yl}-pyrazol-1-yl)-2-methyl-propionitrile]: the EC50 stood at 92 nM.

Take `Cc1c2c(O[C@H](C)[C@H]3CNC(=O)C3)cc(-c3cnn(C(C)C)c3)cc2nn1C` [Example 18, (R)-4-{(R)-1-[6-(1-Isopropyl-1H-pyrazol-4-yl)-2,3-dimethyl-2H-indazol-4-yloxy]-ethyl}-pyrrolidin-2-one]: the 50% effective concentration (EC50) came out at 95 nM.

Turning to `Cc1c2c(O[C@H](C)[C@H]3CNC(=O)C3)cc(-c3cnn(CC(C)C)c3)cc2nn1C` [Example 19, (R)-4-{(R)-1-[6-(1-Isobutyl-1H-pyrazol-4-yl)-2,3-dimethyl-2H-indazol-4-yloxy]-ethyl}-pyrrolidin-2-one], the EC50 worked out at 107 nM.

In the case of `Cc1c2c(O[C@H](C)[C@H]3CNC(=O)C3)cc(-c3cnn(C4CC4)c3)cc2nn1C` [Example 20, (R)-4-{(R)-1-[6-(1-Cyclopropyl-1H-pyrazol-4-yl)-2,3-dimethyl-2H-indazol-4-yloxy]-ethyl}-pyrrolidin-2-one], the EC50 was determined as 134 nM.

Consider `Cc1c2c(O[C@H](C)[C@H]3CNC(=O)C3)cc(-c3cnn(C4CCC4)c3)cc2nn1C` [Example 21, (R)-4-{(R)-1-[6-(1-Cyclobutyl-1H-pyrazol-4-yl)-2,3-dimethyl-2H-indazol-4-yloxy]-ethyl}-pyrrolidin-2-one], for which the EC50 amounted to 76 nM.

For `Cc1c2c(O[C@H](C)[C@H]3CNC(=O)C3)cc(-c3cnn(C4CCC(F)(F)C4)c3)cc2nn1C` (stereo partly drawn) [Example 22, (R)-4-((R)-1-{6-[1-(3,3-Difluoro-cyclopentyl)-1H-pyrazol-4-yl]-2,3-dimethyl-2H-indazol-4-yloxy}-ethyl)-pyrrolidin-2-one], the EC50 was found to be 67 nM.

In the case of `C[C@@H](Oc1nc(-c2cnn(C(C)(C)C)c2)cc2ncn(C)c12)[C@H]1CNC(=O)C1` [example 3A.02, on page 196 of WO15017610, reference compound], the EC50 is 42 nM.

As for `C[C@@H](Oc1cc(-c2cnn(C(C)(C)C)c2)cc2ncn(C)c12)[C@H]1CNC(=O)C1` [example 3B.22 on page 219 of WO15017610, reference compound], the EC50 amounted to 29 nM.

In general, EC50 refers to the concentration at which the effect is half-maximal.
